Measurements published in patent publication US6130204A (Merck & Co., Inc., priority 1998, dated 2000).

What follows are molecules tested on LNCaP prostate tumor cells (assay: In vitro cytotoxicity of peptidyl derivatives of doxorubicin (Alamar Blue assay)). Details: FIG. 4, cells incubated 3 days at 37° C.
Type: cell-based, human
Procedure: The cytotoxicities of the non-cleaveable oligopeptide-doxorubicin conjugates, prepared as described in Example 4, against a line of cells which is known to be killed by unmodified doxorubicin were assessed with an Alamar Blue assay. Specifically, cell cultures of LNCaP prostate tumor cells, which are a human metastatic prostate adenocarcinoma isolated from a needle biopsy of a lymph node (LNCaP.FGC: American Type Culture Collection, ATCC CRL 1740), or DuPRO cells in 96 well plates were diluted with medium containing various concentrations of a given conjugate (final plate well volume of 200 μl). The cells were incubated for 3 days at 37° C. and then 20 μl of Alamar Blue was added to the assay well. The cells were further incubated and the assay plates were read on a EL-310 ELISA reader at the dual wavelengths of 570 and 600 nm at 4 and 7 hours after addition of Alamar Blue. Relative percentage viability at the various concentration of conjugate tested was then calculated versus control (no conjugate) cultures. Cytotoxicities of unmodified doxorubicin and unmodified oligopeptide were also assessed.

Molecule	EC50 [nM]
COc1cccc2c1C(=O)c1c(O)c3c(c(O)c1C2=O)C[C@@](O)(C(=O)CO)C[C@@H]3O[C@H]1C[C@H](N)[C@H](O)[C@H](C)O1 [doxorubicin]	300

What follows are molecules tested on free PSA (assay: not given). Details: not given.

cleaved bond	Molecule
Gln-Ser	Ac-hArg(Cha)Gln.vertline.SerSerSer(ethylester-Leu)
Tyr-Ser	Ac-AlaAsnLysIleSerTyrTyr.vertline.SerSerSerThrGlu-amide
Gln-Ser	Ac-AsnLysIleSerTyrGln.vertline.SerSer-amide
Gln-Ser	Ac-AlaAsnLysIleSerTyrGln.vertline.SerSerGlnThrGlu-amide
Gln-Ser	Ac-AlaSerTyrGln.vertline.SerSerThrGlu-amide
Gln-Ser	AlaAsnLysIleSerTyrGln.vertline.SerSerSerThrGlu-amide
Gln-Ser	Ac-SerTyrGln.vertline.SerSerThrGlu-amide
Gln-Ser	Ac-LysIleSerTyrGln.vertline.SerSer-amide
Gln-Ser	Ac-SerTyrGln.vertline.SerSerSerThrGlu-amide
Gln-Ser	Ac-hArgTyrGln.vertline.SerSerSer(Ethylester-Leu)
Gln-Ser	Ac-AlaAsnLysIleSerTyrGln.vertline.SerAlaSerThrGlu-amide
Gln-Ser	Ac-AlaAsnLysSerTyrGln.vertline.SerSerThrGlu-amide
Gln-Ser	Ac-AlaAsnLysIleSerTyrGln.vertline.SerSerSerThrLeu
Gln-Ser	Ac-AlaAsnLysIleSerTyrGln.vertline.SerThrGlu-amide

The next lines start with the molecule.

Molecule	cleaved bond
Ac-AlaAsnLysIleSerTyrGln.vertline.SerSerSerThrLeu-amide	Gln-Ser
Ac-AlaAsnLysIleSerTyrGln.vertline.SerAlaLysThrGlu-amide	Gln-Ser
Ac-AlaAspLysAlaLysTyrGln.vertline.SerSer(Cha)-NHNH2	Gln-Ser
Ac-AlaAsnSerTyrGln.vertline.SerSerSerThrGlu-amide	Gln-Ser
Ac-AlaAsnLysAlaSerTyrGln.vertline.SerAlaSerCys-amide	Gln-Ser
Ac-AlaSerTyrGln.vertline.SerSerSerThrGlu-amide	Gln-Ser
Ac-AlaSerTyrGln.vertline.SerSerLeu-amide	Gln-Ser
Ac-AlaAsnLysAlaSerTyrGln.vertline.SerAlaSerThrGlu-amide	Gln-Ser
Ac-AlaAsnLysIleSerTyrGln.vertline.SerSerSerThrGlu-amide	Gln-Ser
Ac-hArgTyrGln.vertline.SerSerSer(MeLeu)	Gln-Ser
Ac-AlaAsnGluIleSerTyrGln.vertline.SerAlaSerThrGlu-amide	Gln-Ser
Ac-AlaAsnLysIleSerTyrGln.vertline.SerSerThrGlu-amide	Gln-Ser
Ac-AlaAsnLysIleSerTyrTyr.vertline.SerAlaSerThrGlu-amide	Tyr-Ser
Ac-AlaAsnLysIleSerTyrGln.vertline.SerSerLysThrGlu-amide	Gln-Ser
